Assay results published in patent US20240140986A1, “SYNTHETIC URSOLIC ACID DERIVATIVES AND METHODS OF USE THEREOF” (REATA PHARMACEUTICALS, INC., priority 2021, published 2024).
Like-named read-outs stand apart in the source and are kept apart here.

What was measured:
[1] = test system: IFNγ-induced NO production in RAW 264.7 cells; experiment: Nitric Oxide Suppression Assay (IFNγ-induced NO, Griess nitrite readout); assay type: cell-based, mouse; settings: for IC50: Mus musculus; for Avg NO IC50 Relative to RTA402 (fold): Table 2, ratio to RTA402
Method in brief: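 Nitrite, a surrogate for NO, was measured by Griess reagent (525 nm) and quantified from standards by linear regression, expressed as percent of DMSO plus IFNγ control to give IC50. RAW 264.7 cells had 2 h compound pretreatment, then 24 h with 20 ng/mL IFNγ; WST-1 checked viability.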

[2] = test system: Nrf2 / ARE-dependent luciferase in AREc32 reporter cell line; experiment: AREc32 luciferase reporter activation (Nrf2 induction); assay type: cell-based, human; settings: for EC (2-fold): Homo sapiens, Arec32; for Relative Avg AREc32 EC2X Relative to RTA402 (fold): ratio to RTA402
Method in brief: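 EC2X is the concentration raising luminescence 2-fold above DMSO-treated cells, from a nonlinear-regression dose–response fit. Compounds (0.03–1000 nM) were applied for nineteen hours, starting one day after seeding 20,000 reporter cells per well. Luciferase was read with One-Glo reagent.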

[3] = RAW264.7, Table 2, RAW 264.7 cells, 2 h pretreatment, 20 ng/mL interferon gamma 24 h, read-out: Avg NO IC50 (nM) (Mean ± SD)
[4] = Table 2, concentration increasing luminescence 2-fold above vehicle, 19 h treatment, read-out: Avg AREc32 EC2X (nM) (Mean ± SD)
[5] = RAW264.7, Table 3, oleanolic acid derivative analogs, read-out: Avg NO IC50
[6] = Table 3, oleanolic acid derivative analogs, read-out: Avg ARE EC-2X
[7] = RAW264.7, Table 3, ursolic acid derivatives, read-out: Avg NO IC50 (nM) (Mean ± SD)
[8] = Table 3, ursolic acid derivatives, read-out: Avg ARE EC-2X (nM) (Mean ± SD)

| SMILES | IC50 [1, 3] | Avg NO IC50 Relative to RTA402 (fold) [1] | EC (2-fold) [2, 4] | Relative Avg AREc32 EC2X Relative to RTA402 (fold) ([2]; Table 2) | IC50 [1, 5] | EC (2-fold) [2, 6] | IC50 [1, 7] | EC (2-fold) [2, 8] |
| --- | --- | --- | --- | --- | --- | --- | --- | --- |
| COC(=O)NC[C@]12CC[C@@H](C)[C@H](C)[C@H]1[C@H]1C(=O)C=C3[C@@]4(C)C=C(C#N)C(=O)C(C)(C)[C@@H]4CC[C@@]3(C)[C@]1(C)CC2 [Compound T30] | 5.12 ± 1.21 nM | 1.33 ± 0.30 fold | 3.29 ± 0.61 nM | 0.27 ± 0.06 fold |  |  |  |  |
| Cc1noc(C[C@]23CC[C@@H](C)[C@H](C)[C@H]2[C@H]2C(=O)C=C4[C@@]5(C)C=C(C#N)C(=O)C(C)(C)[C@@H]5CC[C@@]4(C)[C@]2(C)CC3)n1 [Compound T96] | 13.3 ± 3.7 nM | 7.08 ± 3.49 fold | 10.6 ± 0.7 nM | 1.32 ± 0.21 fold |  |  |  |  |
| COC(C)c1noc([C@]23CC[C@@H](C)[C@H](C)[C@H]2[C@H]2C(=O)C=C4[C@@]5(C)C=C(C#N)C(=O)C(C)(C)[C@@H]5CC[C@@]4(C)[C@]2(C)CC3)n1 (some centres unmarked) [Compound T6] | 7.66 ± 1.52 nM | 3.67 ± 1.40 fold | 11.8 ± 1.9 nM | 1.03 ± 0.01 fold |  |  |  |  |
| COC(=O)N[C@]12CC[C@@H](C)[C@H](C)[C@H]1[C@H]1C(=O)C=C3[C@@]4(C)C=C(C#N)C(=O)C(C)(C)[C@@H]4CC[C@@]3(C)[C@]1(C)CC2 [Compound T66] | 11 ± 3 nM | 4.64 ± 0.70 fold | 9.91 ± 0.25 nM | 0.857 ± 0.057 fold |  |  |  |  |
| CC1(C)CC[C@]2(CN3CCCC3=O)CC[C@]3(C)[C@H](C(=O)C=C4[C@@]5(C)C=C(C#N)C(=O)C(C)(C)[C@@H]5CC[C@]43C)[C@@H]2C1 [CC15, reference compound] |  |  |  |  | 1.1 nM | 6.66 nM |  |  |
| CC(=O)N[C@]12CC[C@@H](C)[C@H](C)[C@H]1[C@H]1C(=O)C=C3[C@@]4(C)C=C(C#N)C(=O)C(C)(C)[C@@H]4CC[C@@]3(C)[C@]1(C)CC2 [Compound T18] | 23 ± 4.1 nM | 13.7 ± 5.76 fold | 27.3 ± 5.8 nM | 1.97 ± 0.24 fold |  |  |  |  |
| C[C@@H]1[C@H]2[C@H]3C(=O)C=C4[C@@]5(C)C=C(C#N)C(=O)C(C)(C)[C@@H]5CC[C@@]4(C)[C@]3(C)CC[C@@]2(C(=O)NC2CC2)CC[C@H]1C [Compound T86] | 28.5 ± 6.5 nM | 7.09 ± 1.54 fold | 24.8 ± 6.4 nM | 2.12 ± 0.16 fold |  |  |  |  |
| CNC(=O)NC[C@]12CC[C@@H](C)[C@H](C)[C@H]1[C@H]1C(=O)C=C3[C@@]4(C)C=C(C#N)C(=O)C(C)(C)[C@@H]4CC[C@@]3(C)[C@]1(C)CC2 [Compound T26] | 5.12 ± 2.22 nM | 1.71 ± 0.70 fold | 2.23 ± 0.29 nM | 0.177 ± 0.020 fold |  |  | 5.12 ± 2.22 nM | 2.23 ± 0.29 nM |
| C[C@@H]1[C@H]2[C@H]3C(=O)C=C4[C@@]5(C)C=C(C#N)C(=O)C(C)(C)[C@@H]5CC[C@@]4(C)[C@]3(C)CC[C@@]2(c2nc(CF)no2)CC[C@H]1C [Compound T11] | 4.33 ± 1.45 nM | 2.10 ± 0.49 fold | 8.74 ± 2.61 nM | 0.685 ± 0.050 fold |  |  |  |  |
| CC(=N)NOC(=O)[C@]12CC[C@@H](C)[C@H](C)[C@H]1[C@H]1C(=O)C=C3[C@@]4(C)C=C(C#N)C(=O)C(C)(C)[C@@H]4CC[C@@]3(C)[C@]1(C)CC2 [Compound T107] | 17.7 ± 6.9 nM | 7.07 ± 1.53 fold | 12.9 ± 1.5 nM | 1.17 ± 0.25 fold |  |  |  |  |
| Cc1nc([C@]23CCC(C)(C)C[C@H]2[C@H]2C(=O)C=C4[C@@]5(C)C=C(C#N)C(=O)C(C)(C)[C@@H]5CC[C@@]4(C)[C@]2(C)CC3)no1 [CC82, reference compound] |  |  |  |  | 3.8 nM | 22.1 nM |  |  |
| C[C@@H]1[C@H]2[C@H]3C(=O)C=C4[C@@]5(C)C=C(C#N)C(=O)C(C)(C)[C@@H]5CC[C@@]4(C)[C@]3(C)CC[C@@]2(CNC(=O)C(F)F)CC[C@H]1C [Compound T28] | 3.64 ± 1.69 nM | 1.15 ± 0.32 fold | 4.33 ± 1.62 nM | 0.331 ± 0.101 fold |  |  |  |  |
| C[C@@H]1[C@H]2[C@H]3[C@H]4C[C@@H]5[C@@]6(C)C=C(C#N)C(=O)C(C)(C)[C@@H]6CC[C@@]5(C)[C@]3(C)CC[C@]2(CC[C@H]1C)C(=O)O4 [Compound T102] | 108 ± 19 nM | 36.5 ± 16.9 fold | 338 ± 11 nM | 31.2 ± 5.3 fold |  |  |  |  |
| CNC(=O)[C@]12CC[C@@H](C)[C@H](C)[C@H]1[C@H]1C(=O)C=C3[C@@]4(C)C=C(C#N)C(=O)C(C)(C)[C@@H]4CC[C@@]3(C)[C@]1(C)CC2 [Compound T85] | 26.8 ± 4.7 nM | 9.84 ± 1.92 fold | 19 ± 3.5 nM | 1.63 ± 0.17 fold |  |  |  |  |
| COCc1noc([C@]23CC[C@@H](C)[C@H](C)[C@H]2[C@H]2C(=O)C=C4[C@@]5(C)C=C(C#N)C(=O)C(C)(C)[C@@H]5CC[C@@]4(C)[C@]2(C)CC3)n1 [Compound T3] | 5.1 ± 1.02 nM | 2.51 ± 0.94 fold | 6.16 ± 1.02 nM | 0.598 ± 0.137 fold |  |  |  |  |
| C[C@@H]1[C@H]2[C@H]3C(=O)C=C4[C@@]5(C)C=C(C#N)C(=O)C(C)(C)[C@@H]5CC[C@@]4(C)[C@]3(C)CC[C@@]2(n2ccnn2)CC[C@H]1C [Compound T60] | 18.2 ± 6.2 nM | 4.94 ± 1.78 fold | 8.89 ± 1.13 nM | 0.791 ± 0.111 fold |  |  |  |  |
| C[C@@H]1[C@H]2[C@H]3C(=O)C=C4[C@@]5(C)C=C(C#N)C(=O)C(C)(C)[C@@H]5CC[C@@]4(C)[C@]3(C)CC[C@@]2(C(=O)N2CCCC2)CC[C@H]1C [Compound T71] | 19.7 ± 1.8 nM | 13 ± 2.7 fold | 29.3 ± 8.1 nM | 2.95 ± 0.14 fold |  |  |  |  |
| C[C@@H]1[C@H]2[C@H]3C(=O)C=C4[C@@]5(C)C=C(C#N)C(=O)C(C)(C)[C@@H]5CC[C@@]4(C)[C@]3(C)CC[C@@]2(n2ccnc2)CC[C@H]1C [Compound T62] | 23.4 ± 5.4 nM | 8.76 ± 3.40 fold | 19.7 ± 2 nM | 1.55 ± 0.28 fold |  |  | 23.4 ± 5.4 nM | 19.7 ± 2 nM |
| C[C@@H]1[C@H]2[C@H]3C(=O)C=C4[C@@]5(C)C=C(C#N)C(=O)C(C)(C)[C@@H]5CC[C@@]4(C)[C@]3(C)CC[C@@]2(CN2CCNC2=O)CC[C@H]1C [Compound T45] | 8.79 ± 2.72 nM | 3.22 ± 0.99 fold | 6.14 ± 1.47 nM | 0.563 ± 0.065 fold |  |  |  |  |
| CC1(C)CC[C@]2(CNCCO)CC[C@]3(C)[C@H](C(=O)C=C4[C@@]5(C)C=C(C#N)C(=O)C(C)(C)[C@@H]5CC[C@]43C)[C@@H]2C1 [CC40, reference compound] |  |  |  |  | 7.5 nM | 21.8 nM |  |  |
| C[C@@H]1[C@H]2[C@H]3C(=O)C=C4[C@@]5(C)C=C(C#N)C(=O)C(C)(C)[C@@H]5CC[C@@]4(C)[C@]3(C)CC[C@@]2(CNC(=O)C(C)(F)F)CC[C@H]1C [Compound T29] | 4.21 ± 1.75 nM | 1.47 ± 0.32 fold | 3.88 ± 1.19 nM | 0.317 ± 0.086 fold |  |  |  |  |
| C[C@@H]1[C@H]2[C@H]3C(=O)C=C4[C@@]5(C)C=C(C#N)C(=O)C(C)(C)[C@@H]5CC[C@@]4(C)[C@]3(C)CC[C@@]2(/C=N/O)CC[C@H]1C [Compound T84] | 7.91 ± 2.32 nM | 4.07 ± 1.76 fold | 9.29 ± 1.52 nM | 1.14 ± 0.22 fold |  |  |  |  |
